Assay results reported in patent US20220288010A1, “METHODS FOR REDUCING REWARDING EFFECTS OF MORPHINE WITHOUT AFFECTING ITS ANALGESIC EFFECTS” (The Board of Trustees of the Leland Stanford Junior …, priority 2019, published 2022).
“Also recorded” adds a separate entry of the source.

What was measured:
[1] = test system: mice; assay: morphine conditioned place preference (CPP) paradigm to assess morphine reward; type: in vivo
Description: The ability of a MAGL inhibitor to attenuate the rewarding effect of an opioid can also be assessed in animal models. For example, a morphine conditioning place preference (CPP) paradigm can be used as a preclinical model to measure reward, in which mice are conditioned to associate a particular chamber with the rewarding effects of morphine (see, e.g., Example 1). Reward, e.g., as measured by a preference for the morphine chamber, can be assessed at different phases of morphine conditioning, for example to assess if a MAGL inhibitor decreases or inhibits the establishment of the rewarding effect or of its maintenance or expression.
Endocannabinoid signaling is primarily regulated by MAGL and FAAH, the two enzymes responsible for catabolizing the endogenous cannabinoids, 2-AG and anandamide. Although some studies have shown that inhibition of these enzymes reduces certain aspects of morphine withdrawal, no studies exist that have examined their role in morphine reward. We utilized the morphine conditioned place preference (CPP) paradigm, to assess morphine reward, in which mice are conditioned to associate a particular chamber with the rewarding effects of morphine (FIG. 1A). […] To test the effect of systemic blockade of MAGL with the pharmacological inhibitor JZL-184 on morphine reward, on Day 1 mice underwent a baseline test, on Day 2-5 mice were conditioned to morphine wherein they received an intraperitoneal (i.p.) injection of JLZ-184 (10 mg/kg, i.p.), two hours prior to each morphine conditioning session (FIG. 1B). On day 6, mice were tested for morphine preference. […] Next, to test if this effect of MAGL inhibition was selective for the conditioning phase or potentially could also alter the expression of the morphine preference, mice were injected with JLZ-184 two hours prior to the Day 6 morphine preference test, in the absence of morphine (FIG. 1D).
In order to expand our findings, we decided to test the (R)-3t compound, a reversible MAGL inhibitor, in morphine conditioned place preference. As with JZL-184, (R)-3t (20 mg/kg) was given before each morphine conditioning session (FIG. 3A).
To test the effect of inhibiting the enzyme FAAH on the rewarding effects of morphine, we tested the effect of the FAAH inhibitor PF-3845 in morphine conditioned place preference. […] We additionally found no effect of PF-3845 (10 mg/kg, i.p.) on morphine-induced analgesia and morphine tolerance using the tail-flick test (FIGS. 4E-G).
Inhibition of the MAGL enzyme with JZL-184 results in lower metabolization of the endogenous cannabinoid 2-AG. This implies higher availability of this endogenous cannabinoid receptor 1 (CB1) ligand to activate CB1 receptors. Next, we tested the effect of activating the CB1 receptor with the exogenous CB1 ligand, THC, on morphine conditioned place preference. Mice were systemically administered THC prior to each morphine conditioning session (FIG. 5A).

[2] = test system: mice; assay: tail flick test, morphine analgesia, cumulative dose response of morphine; type: in vivo
[3] = test system: mice; assay: tail flick test, tolerance to morphine's analgesic effects; type: in vivo
Procedure: Chronic morphine treatment can result in tolerance to its analgesic effects; therefore, to test if morphine tolerance was affected by MAGL inhibition, for four consecutive days mice received a morning and afternoon injection of JZL-184 (10 mg/kg, i.p.), two hours prior to an injection of morphine (10 mg/kg), and antinociception was assessed every other day in the tail flick test.

[4] = test system: mice; assay: cocaine conditioned place preference (CPP); type: in vivo; settings: JZL-184 prior to each cocaine conditioning session
Description: Although drugs of abuse exert their rewarding effects through similar pathways and brain structures, they use different mechanisms. […] Mice were pretreated with JZL-184 prior to each cocaine conditioning session (FIG. 6A).

[5] = test system: nucleus accumbens (NAc) activity; assay: in vivo fiber photometry (GCaMP6s) recording during morphine CPP; settings: JZL-184 treated mice
Description: FIGS. 7A-7D. MAGL inhibition reduces nucleus accumbens (NAc) activity during morphine CPP. FIG. 7A: Experimental timeline for fiber photometry recording during […]. FIG. 7B: Brain schematic with an optic fiber implanted into the NAc expressing the calcium indicator GCaMP6s and a representative image of the GCaMP6s expressing in the NAc (aca=anterior commissure, AcbC=nucleus accumbens core, AcbSh=nucleus accumbens shell). FIG. 7C: Graph of the quantification of the mean signal (representative of NAc activity) around zone entry into the morphine- or saline-paired chambers of vehicle- or JZL-184-pretreated animals. (dF/F (%) data for the average signal +/− 5s around zone entries; vehicle-treated animals, morphine vs saline chamber *p<0.05, n=6; JZL-184 treated animals, morphine vs saline p=0.054, n=9). FIG. 7D: Graph of the quantification of the onset of approach to morphine- or saline-paired chambers (dF/F (%) data for the average signal +/− 5s of the onset of approaching a chamber; vehicle-treated animals, morphine vs saline chamber *p<0.05, n=6; JZL-184 treated animals, morphine vs saline p=0.39, n=9).
The rewarding effects of morphine have been linked to neural activity of the brain region the nucleus accumbens. […]

[6] = test system: monoacylglycerol lipase (MAGL); settings: cited from earlier work
[7] = pretreatment with PF-3845 10 mg/kg i.p.

With `Cc1ncccc1-c1cc(F)cc(N2C[C@H](N3CCN(c4ncccn4)CC3)CC2=O)c1` [(R)-3t, (4R)-1-[3-fluoro-5-(2-methylpyridin-3-yl)phenyl]-4-[4-(pyrimidin-2-yl)piperazin-1-yl]pyrrolidin-2-one] the “acquisition of morphine CPP (morphine reward)” value (shortened to “acquisition … (morphine reward)”) ([1]; (R)-3t 20 mg/kg before each morphine conditioning session) was “resulted in a lack of morphine reward; also recorded: abolishes the rewarding effects of morphine; also recorded: abolishes acquisition of CPP”.
For `O=C(Oc1ccc([N+](=O)[O-])cc1)N1CCC(C(O)(c2ccc3c(c2)OCO3)c2ccc3c(c2)OCO3)CC1` [JZL-184, (4-nitrophenyl) 4-[bis(1,3-benzodioxol-5-yl)-hydroxymethyl]piperidine-1-carboxylate], the “acquisition … (morphine reward)” value ([1]; JZL-184 10 mg/kg i.p. two hours prior to each morphine conditioning session (Day 2-5), preference test Day 6, 10 mg/kg) was “abolishes morphine reward; also recorded: abolishes the rewarding effects of morphine; also recorded: abolished morphine CPP”, the “expression of morphine CPP” value ([1]; JZL-184 two hours prior to the Day 6 morphine preference test, in the absence of morphine) was “does not alter the expression of morphine CPP” and the “expression of morphine CPP” value ([1]; JZL-184 two hours prior to the Day 6 morphine preference test, in the absence of morphine, listed as JLZ-184) was “had no effect on morphine reward”. The morphine-induced analgesia ([2]; JZL-184 10 mg/kg i.p. two hours before morphine 0.1-10 mg/kg cumulative, tested 30 minutes after each dose) was “did not alter the analgesic effects of morphine; also recorded: does not affect morphine-induced analgesia”, the “development of tolerance to morphine's analgesic effects” value ([3]; JZL-184 10 mg/kg i.p. morning and afternoon, two hours prior to morphine 10 mg/kg, four consecutive days, compared to vehicle) was “delayed morphine-induced tolerance; also recorded: delays the development of tolerance to morphine's analgesic effects” and the “acquisition of cocaine CPP (cocaine reward)” value [4] was “did not have any effect on cocaine reward; also recorded: does not alter the acquisition of cocaine CPP”. For the same compound, the “higher nucleus accumbens activity when approaching the morphine-paired chamber” value ([5]; onset of approach (FIG. 7D)) was “abolished”, the “increase in nucleus accumbens activity prior to entry into the morphine-paired chamber vs saline-paired chamber” value ([5]; signal around zone entry (FIG. 7C)) was “absent” and the “selectivity for MAGL over other brain serine hydrolases, including FAAH” value [6] was “highly selective for MAGL over other brain serine hydrolases”.
In the case of `O=C(Nc1cccnc1)N1CCC(Cc2cccc(Oc3ccc(C(F)(F)F)cn3)c2)CC1` [PF-3845], the “acquisition of morphine CPP” value ([1]; PF-3845 10 mg/kg i.p. before each conditioning session, 10 mg/kg) is reported as “had no effect on acquisition of morphine conditioned place preference; also recorded: does not alter acquisition of morphine CPP”, the “expression of morphine CPP” value ([1]; PF-3845 10 mg/kg i.p. before the morphine CPP expression test, 10 mg/kg) is reported as “had no effect; also recorded: does not alter” and the morphine-induced analgesia [2, 7] is reported as “no effect; also recorded: are not affected”. The morphine tolerance [3, 7] was “no effect; also recorded: are not affected”.
For `CCCCCc1cc(O)c2c(c1)OC(C)(C)[C@@H]1CCC(C)=C[C@@H]21` [THC, Δ^9-Tetrahydrocannabinol], the “acquisition … (morphine reward)” value ([1]; THC systemically prior to each morphine conditioning session) was “had no effect on morphine reward; also recorded: does not alter the acquisition of morphine CPP”.
